In article PMC12846378 (Viruses, 2026):
Where “and” joins values, the source holds several entries; their conditions need not be identical. Equal values may be shown once. Read-outs that look alike come from different tables or passages of the source.

Key:
rLCMV/GFP-P2A-NP [1] = format: cell-based
rLCMV/GFP-P2A-NP [2] = format: cell-based; remark: listed apart in the source
rJUNV/GFP-P2A-NP [3] = experiment: organism not typed; format: cell-based
rJUNV/GFP-P2A-NP [4] = experiment: organism not typed; format: cell-based; remark: listed apart in the source
rLCMV/GFP-P2A-NP [5] = format: cell-based; remark: listed apart in the source
LCMV vRNP = LCMV vRNP (Mammarenavirus choriomeningitidis (LCMV), UniProt P14240); format: cell-based
LASV vRNP = format: cell-based
LCMV Z = format: cell-based
LCMV NP RNA = format: cell-based
A549 cells [6] = test system: A549 cells
A549 cells [7] = test system: A549 cells; remark: listed apart in the source
A549 cells [8] = test system: A549 cells; remark: listed apart in the source
HEK293T cells [9] = test system: HEK293T cells
HEK293T cells [10] = test system: HEK293T cells; remark: listed apart in the source
rLCMV/GFP-P2A-NP [11] = format: cell-based; remark: listed apart in the source
rLCMV/GFP-P2A-NP [12] = experiment: organism not typed; format: cell-based
ISG15 = format: cell-based
MX1 = format: cell-based
in vitro = conditions: African green monkey

What does the source list for `CNC1=Nc2ccc(Cl)cc2C(c2ccc[nH]2)=NC1` [RO, Ro-24-7429]?
reduction in infectivity (GFP signal) (rLCMV/GFP-P2A-NP [1]): ≥ 80%; EC50 (rLCMV/GFP-P2A-NP [2]; read-out: EC50): 889 nM and 890 nM; antiviral activity against JUNV (rJUNV/GFP-P2A-NP [3]): less efficient; EC50 (rJUNV/GFP-P2A-NP [3]; read-out: EC50): 15300 nM; antiviral activity against JUNV (rJUNV/GFP-P2A-NP [4]): less efficient; production of infectious virus (titers in CCS) (rLCMV/GFP-P2A-NP [5]): reduced efficacy at 1 µM compared to 5 µM; inhibition of LCMV MG activity (LCMV vRNP): significantly less efficient; inhibition of LASV MG activity (LASV vRNP): significantly less efficient; effect on Z budding activity (LCMV Z): did not affect; effect on virus RNA replication and transcription (LCMV NP RNA): inhibited to a similar degree both virus replication and transcription; reduction in cell viability / cytotoxicity (A549 cells [6]): ≤ 20%; CC50 (A549 cells [7]): > 20000 nM; CC50 (Vero E6 cells): > 30000 nM; CC50 (A549 cells [8]): > 30000 nM; CC50 (HEK293T cells [9]): > 20000 nM; CC50 (HEK293T cells [10]): > 1000 nM

Which “production of infectious virus (titers in CCS)” value (rLCMV/GFP-P2A-NP [5]) does the source give for `O=C(/C=C\n1cnc(-c2cc(C(F)(F)F)cc(C(F)(F)F)c2)n1)NNc1cnccn1` [SE, Selinexor] here?
The value was “potent inhibitory effect on LCMV multiplication”.

Which results are given for `O=C(/C=C\n1cnc(-c2cc(C(F)(F)F)cc(C(F)(F)F)c2)n1)NNc1ccccn1` [VE, verdinexor]?
reduction in infectivity (GFP signal) (rLCMV/GFP-P2A-NP [1]): ≥ 80%; EC50 (rLCMV/GFP-P2A-NP [2]): 70 nM; EC50 (rJUNV/GFP-P2A-NP [3]): 240 nM; antiviral activity against JUNV (rJUNV/GFP-P2A-NP [3]): potent antiviral activity; EC50 (rJUNV/GFP-P2A-NP [3]; Vero C1008): 239 nM; antiviral activity against JUNV (rJUNV/GFP-P2A-NP [4]): potent antiviral activity; EC50 (rJUNV/GFP-P2A-NP [4]; A549): 36 nM; reduction in virus peak titers (rLCMV/GFP-P2A-NP [5]): ~2 log; inhibition of LCMV MG activity (LCMV vRNP): potently inhibited; inhibition of LASV MG activity (LASV vRNP): potently inhibited; effect on Z budding activity (LCMV Z): significant inhibitory effect; effect on LCMV multiplication in MAVS-KO A549 cells (rLCMV/GFP-P2A-NP [11]): strong dose-dependent inhibitory effect; inhibition at 0.3334 µM (rLCMV/GFP-P2A-NP [12]): 77.6%; inhibition at 1 µM (rLCMV/GFP-P2A-NP [12]): 97.05 ± 0.41%; expression level of ISG15 (ISG15): reduced expression levels; expression level of MX1 (MX1): reduced expression levels; effect on virus RNA replication and transcription (LCMV NP RNA): inhibited to a similar degree both virus replication and transcription; reduction in cell viability / cytotoxicity (A549 cells [6]; human): ≤ 20%; CC50 (in vitro): > 30000 nM
